Laboratory results reported in US6365759B1, “Intermediate compounds for preparing macrocylcic analogs” (Eisai Co., Ltd., priority 1998, dated 2002).
Where two headings read alike, the source gives them in different places.

Tests used:
[1] = tested on: LOX human melanoma tumor xenograft; experiment: LOX melanoma xenograft growth inhibition assay; format: in vivo, mouse; settings: FIG. 3
Description: FIG. 3 is a graph showing the average tumor volume in microliters as a function of time (days) in a LOX melanoma xenograft growth inhibition assay. […] Paclitaxel and a vehicle control were used.
Many of the individually disclosed drugs were tested for in vitro and in vivo activity (see Table 1, below). Screening methods included a standard in vitro cell growth inhibition assay using DLD-1 human colon cancer cells (ATCC accession number CCL 221) in a 96-well microtiter plate format (Finlay, G. J. et al Analytical Biochemistry 139:272-277, 1984), a U937 (ATCC accession number CRL 1593) mitotic block reversibility assay (described below), and in some cases, a LOX human melanoma tumor xenograft in vivo growth inhibition assay (see Table 1). Chemical stability to esterase degradation was also examined.

[2] = tested on: U937 human histiocytic lymphoma cells; experiment: U937 Mitotic Block Reversibility Assay; format: cell-based
[3] = tested on: DLD-1 human colon cancer cells; experiment: in vitro cell growth inhibition assay using DLD-1 cells; format: cell-based

Row | SMILES | antitumor activity (average tumor volume over time) [1] | Complete Mitotic Block 0 hour [2] | Complete Mitotic Block 10 hour [2] | Reversibility Ratio [2] | minimum concentration required for complete mitotic block at 0 hour [2] | minimum concentration required for complete mitotic block at 10 hour [2] | reversibility ratio [2] | viability of cells at 5 days [2] | IC50 ([3]; Homo sapiens, DLD-1, read-out: DLD-1 mean IC50) | IC50 ([3]; read-out: DLD-1 mean IC50)
1 | C=C1CC2CCC34CC5OC6C(O3)C3OC(CCC3O[C@H]6C5O4)CC(=O)CC3C(CC4OC(CCC1O2)CC(C)C4=C)OC(CC(O)CN)C3OC (stereo partly shown) [Compound B1939] | antitumor activity | 12 nM | 12 nM | 1.0 | 10 nM | 10 nM | 1 | drops to very low levels | 19.3 nM | –
2 | C=C1CC2CCC34CC5OC6C(OC7CCC(CC(=O)CC8C(CC9OC(CCC1O2)CC(C)C9=C)OC(CC(O)CNC(C)(C)C)C8OC)OC7C6O3)C5O4 (stereo not shown) [Compound B2339] | – | 3 nM | 3 nM | 1.0 | – | – | – | – | – | 4.3 nM
3 | C=C1CC2CCC34CC5OC6C(OC7CCC(CC(=O)CC8C(CC9OC(CCC1O2)CC(C)C9=C)OC(CC(O)CNCCO)C8OC)OC7C6O3)C5O4 (stereo not shown) [Compound B2417] | – | 10 nM | 10 nM | 1.0 | – | – | – | – | – | 12.7 nM
4 | C=C1CC2CCC34CC5OC6C(OC7CCC(CC(=O)CC8C(CC9OC(CCC1O2)CC(C)C9=C)OC(CC(O)CN1CCNCC1)C8OC)OC7C6O3)C5O4 (stereo not shown) [Compound B2418] | – | 10 nM | 10 nM | 1.0 | – | – | – | – | – | 3.63 nM
5 | C=C1CC2CCC34CC5OC6C(OC7CCC(CC(=O)CC8C(CC9OC(CCC1O2)CC(C)C9=C)OC(CC(O)CN(CCO)CCO)C8OC)OC7C6O3)C5O4 (stereo not shown) [Compound B2489] | – | 10 nM | 10 nM | 1.0 | – | – | – | – | – | 14.7 nM
6 | C=C1CC2CCC34CC5OC6C(OC7CCC(CC(=O)CC8C(CC9OC(CCC1O2)CC(C)C9=C)OC(CC(O)CNC(CO)CO)C8OC)OC7C6O3)C5O4 (stereo not shown) [Compound B2490] | – | 100 nM | 100 nM | 1.0 | – | – | – | – | – | 35.7 nM
7 | C=C1CC2CCC34CC5OC6C(OC7CCC(CC(=O)CC8C(CC9OC(CCC1O2)CC(C)C9=C)OC(CC(O)CNCc1ccccc1)C8OC)OC7C6O3)C5O4 (stereo not shown) [Compound B2491] | – | 2 nM | 10 nM | 6.7 | – | – | – | – | – | 0.92 nM
8 | C=C1CC2CCC34CC5OC6C(OC7CCC(CC(=O)CC8C(CC9OC(CCC1O2)CC(C)C9=C)OC(CC(O)CN1CCCCC1)C8OC)OC7C6O3)C5O4 (stereo not shown) [ER803834] | – | 1 nM | 10 nM | 10.0 | – | – | – | – | – | 0.47 nM
9 | C=C1CC2CCC34CC5OC6C(OC7CCC(CC(=O)CC8C(CC9OC(CCC1O2)CC(C)C9=C)OC(CC(O)CN1CCCC1)C8OC)OC7C6O3)C5O4 (stereo not shown) [ER803835] | – | 10 nM | 10 nM | 1.0 | – | – | – | – | – | 15.3 nM
10 | C=C1CC2CCC34CC5OC6C(OC7CCC(CC(=O)CC8C(CC9OC(CCC1O2)CC(C)C9=C)OC(CC(O)CN1CC[C@@H](O)C1)C8OC)OC7C6O3)C5O4 (stereo partly shown) [ER803836] | – | 3 nM | 10 nM | 3.3 | – | – | – | – | – | 1.97 nM
11 | C=C1CC2CCC34CC5OC6C(OC7CCC(CC(=O)CC8C(CC9OC(CCC1O2)CC(C)C9=C)OC(CC(O)CN1CCCCCC1)C8OC)OC7C6O3)C5O4 (stereo not shown) [ER803843] | – | 1 nM | 10 nM | 10.0 | – | – | – | – | – | 0.49 nM
12 | C=C1CC2CCC34CC5OC6C(OC7CCC(CC(=O)CC8C(CC9OC(CCC1O2)CC(C)C9=C)OC(CC(O)CNCc1ccc(OC)cc1)C8OC)OC7C6O3)C5O4 (stereo not shown) [ER803845] | – | 3 nM | 10 nM | 3.3 | – | – | – | – | – | 1.5 nM
13 | C=C1CC2CCC34CC5OC6C(OC7CCC(CC(=O)CC8C(CC9OC(CCC1O2)CC(C)C9=C)OC(CC(O)CNCCc1ccccc1)C8OC)OC7C6O3)C5O4 (stereo not shown) [ER803846] | – | 1 nM | 10 nM | 10.0 | – | – | – | – | – | 1.16 nM
14 | C=C1CC2CCC34CC5OC6C(OC7CCC(CC(=O)CC8C(CC9OC(CCC1O2)CC(C)C9=C)OC(CC(O)CN1CCC[C@H]1CO)C8OC)OC7C6O3)C5O4 (stereo partly shown) [ER803851] | – | 3 nM | 3 nM | 1.0 | – | – | – | – | – | 3.33 nM
15 | C=C1CC2CCC34CC5OC6C(OC7CCC(CC(=O)CC8C(CC9OC(CCC1O2)CC(C)C9=C)OC(CC(O)CN1CCC[C@@H]1CO)C8OC)OC7C6O3)C5O4 (stereo partly shown) [ER803852] | – | 3 nM | 10 nM | 3.3 | – | – | – | – | – | 3.03 nM
16 | C=C1CC2CCC34CC5OC6C(OC7CCC(CC(=O)CC8C(CC9OC(CCC1O2)CC(C)C9=C)OC(CC(O)CN1CCOCC1)C8OC)OC7C6O3)C5O4 (stereo not shown) [ER803868] | – | 3 nM | 10 nM | 3.3 | – | – | – | – | – | 0.43 nM
17 | C=C1CC2CCC34CC5OC6C(OC7CCC(CC(=O)CC8C(CC9OC(CCC1O2)CC(C)C9=C)OC(CC(O)CNCC)C8OC)OC7C6O3)C5O4 (stereo not shown) [ER803869] | – | 3 nM | 3 nM | 1.0 | – | – | – | – | – | 4.13 nM
18 | C=C1CC2CCC34CC5OC6C(OC7CCC(CC(=O)CC8C(CC9OC(CCC1O2)CC(C)C9=C)OC(CC(O)Cn1ccnc1)C8OC)OC7C6O3)C5O4 (stereo not shown) [ER803870] | – | 3 nM | 30 nM | 10.0 | – | – | – | – | – | 1.27 nM
19 | C=C1CC2CCC34CC5OC6C(OC7CCC(CC(=O)CC8C(CC9OC(CCC1O2)CC(C)C9=C)OC(CC(O)CN(CC)CC)C8OC)OC7C6O3)C5O4 (stereo not shown) [ER803883] | – | 1 nM | 10 nM | 10.0 | – | – | – | – | – | 1.02 nM
20 | C=C1CC2CCC34CC5OC6C(OC7CCC(CC(=O)CC8C(CC9OC(CCC1O2)CC(C)C9=C)OC(CC(O)CNCc1ccc(Cl)cc1)C8OC)OC7C6O3)C5O4 (stereo not shown) [ER803884] | – | 1 nM | 10 nM | 10.0 | – | – | – | – | – | 0.59 nM
